Reference: patent US20130066264A1, “SUGAR-RESPONSIVE GEL AND MEDICINE ADMINISTERING DEVICE” (NATIONAL INSTITUTE FOR MATERIALS SCIENCE, priority 2010, published 2013)

Settings: acid-base titration, FIG. 2
Source text: Next, for the sample 1, the comparative sample 1 and the comparative sample 2, the relationships between glucose concentrations and apparent changes in pKa were derived by acid-base titration in the conditions of various glucose concentrations (0 g/L, 1 g/L, 3 g/L, 5 g/L and g/L).

SMILES: C=CC(=O)NCCNC(=O)c1ccc(B(O)O)cc1F [sample 1, 4-(2-acrylamideethylcarbamoyl)-3-fluorophenylboronic acid]
- apparent pKa (glucose 0 g/L, 1 g/L, 3 g/L, 5 g/L and g/L (samples a1 to a5)): < 7.4
- degree of decrease in pKa according to the increase in concentration of glucose, versus comparative samples 1 and 2 (various glucose concentrations): remarkably superior
